Measurements from PubChem BioAssay (NCI).
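Briefly, cells in 96-well plates were exposed to five compound concentrations for 48 h, and endpoints were estimated by linear interpolation. TGI marks complete inhibition of growth.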

Columns and labels:
Test in all cases: inhibition of tumour cell growth, NCI panel, 48 h
DLD-1 colon = test system: DLD-1 colon
U251 CNS = test system: U251 CNS
HT29 colon = test system: HT29 colon
OVCAR-8 ovarian = test system: OVCAR-8 ovarian
A549 NSCLC = test system: A549 NSCLC
OVCAR-4 ovarian = test system: OVCAR-4 ovarian
NCI-H23 lung = test system: NCI-H23 lung
NCI-H460 lung = test system: NCI-H460 lung
DMS 273 small cell lung = test system: DMS 273 small cell lung
M19-MEL melanoma = test system: M19-MEL melanoma
SN12C renal = test system: SN12C renal
UO-31 renal = test system: UO-31 renal
UACC-257 melanoma = test system: UACC-257 melanoma
OVCAR-3 ovarian = test system: OVCAR-3 ovarian
SF-268 CNS = test system: SF-268 CNS
LOX IMVI melanoma = test system: LOX IMVI melanoma
KM12 colon = test system: KM12 colon
TK-10 renal = test system: TK-10 renal
NCI-H522 lung = test system: NCI-H522 lung
HOP-92 NSCLC = test system: HOP-92 NSCLC
KM20L2 colon = test system: KM20L2 colon
LXFL 529 NSCLC = test system: LXFL 529 NSCLC
SK-MEL-28 melanoma = test system: SK-MEL-28 melanoma
SK-MEL-2 melanoma = test system: SK-MEL-2 melanoma
COLO 205 colon = test system: COLO 205 colon
SNB-19 CNS = test system: SNB-19 CNS
M14 melanoma = test system: M14 melanoma
SW-620 colon = test system: SW-620 colon
EKVX NSCLC = test system: EKVX NSCLC
SK-MEL-5 melanoma = test system: SK-MEL-5 melanoma
IGROV1 ovarian = test system: IGROV1 ovarian
HCT-15 colon = test system: HCT-15 colon
UACC-62 melanoma = test system: UACC-62 melanoma
ACHN renal = test system: ACHN renal
CAKI-1 renal = test system: CAKI-1 renal
HCC-2998 colon = test system: HCC-2998 colon
786-0 renal = test system: 786-0 renal
SK-OV-3 ovarian = test system: SK-OV-3 ovarian
HOP-62 NSCLC = test system: HOP-62 NSCLC
SF-295 CNS = test system: SF-295 CNS
MDA-MB-435 = test system: MDA-MB-435
A498 renal = test system: A498 renal
OVCAR-5 ovarian = test system: OVCAR-5 ovarian
BT-549 breast = test system: BT-549 breast
CCRF-CEM leukemia = test system: CCRF-CEM leukemia
RPMI-8226 leukemia = test system: RPMI-8226 leukemia
SR leukemia = test system: SR leukemia
HS 578T breast = test system: HS 578T breast
MALME-3M melanoma = test system: MALME-3M melanoma
MDA-N = test system: MDA-N
DU-145 prostate = test system: DU-145 prostate
MOLT-4 leukemia = test system: MOLT-4 leukemia
HCT-116 colon = test system: HCT-116 colon
MDA-MB-231 breast = test system: MDA-MB-231 breast
PC-3 prostate = test system: PC-3 prostate
HL-60(TB) leukemia = test system: HL-60(TB) leukemia
RXF 393 renal = test system: RXF 393 renal
MCF7 breast = test system: MCF7 breast
SNB-75 CNS = test system: SNB-75 CNS
T-47D breast = test system: T-47D breast
NCI-H226 lung = test system: NCI-H226 lung
SF-539 CNS = test system: SF-539 CNS
NCI/ADR-RES ovarian = test system: NCI/ADR-RES ovarian
K-562 leukemia = test system: K-562 leukemia

## Cc1ccc(C(N)=O)cc1N=NN(C)C
DLD-1 colon
  TGI: > 100 µM
U251 CNS
  TGI: > 100 µM
HT29 colon
  TGI: > 100 µM
OVCAR-8 ovarian
  TGI: > 100 µM
A549 NSCLC
  TGI: > 100 µM
OVCAR-4 ovarian
  TGI: > 100 µM
NCI-H23 lung
  TGI: > 100 µM
NCI-H460 lung
  TGI: > 100 µM
DMS 273 small cell lung
  TGI: > 100 µM
M19-MEL melanoma
  TGI: > 100 µM
SN12C renal
  TGI: > 100 µM
UO-31 renal
  TGI: > 100 µM
UACC-257 melanoma
  TGI: > 100 µM
OVCAR-3 ovarian
  TGI: > 100 µM
SF-268 CNS
  TGI: > 100 µM
LOX IMVI melanoma
  TGI: > 100 µM
KM12 colon
  TGI: > 100 µM
TK-10 renal
  TGI: > 100 µM
NCI-H522 lung
  TGI: > 100 µM
HOP-92 NSCLC
  TGI: > 100 µM
KM20L2 colon
  TGI: > 100 µM
LXFL 529 NSCLC
  TGI: > 100 µM
SK-MEL-28 melanoma
  TGI: > 100 µM
SK-MEL-2 melanoma
  TGI: > 100 µM
COLO 205 colon
  TGI: > 100 µM
SNB-19 CNS
  TGI: > 100 µM
M14 melanoma
  TGI: > 100 µM
SW-620 colon
  TGI: > 100 µM
EKVX NSCLC
  TGI: > 100 µM
SK-MEL-5 melanoma
  TGI: > 100 µM
IGROV1 ovarian
  TGI: > 100 µM
HCT-15 colon
  TGI: > 100 µM
UACC-62 melanoma
  TGI: > 100 µM
ACHN renal
  TGI: > 100 µM
CAKI-1 renal
  TGI: > 100 µM
HCC-2998 colon
  TGI: > 100 µM
786-0 renal
  TGI: > 100 µM
SK-OV-3 ovarian
  TGI: > 100 µM
HOP-62 NSCLC
  TGI: > 100 µM
SF-295 CNS
  TGI: > 100 µM

## CC(=O)NCCC1CN(C(=O)/C=C/I)c2ccccc21 (centres undefined)
U251 CNS
  TGI: 24.2 µM
HT29 colon
  TGI: 12.9 µM
OVCAR-8 ovarian
  TGI: 25.4 µM
MDA-MB-435
  TGI: 18.5 µM
A498 renal
  TGI: 17.5 µM
A549 NSCLC
  TGI: 33.1 µM
OVCAR-5 ovarian
  TGI: 29.3 µM
OVCAR-4 ovarian
  TGI: 4.45 µM
BT-549 breast
  TGI: 10.8 µM
NCI-H23 lung
  TGI: 25.6 µM
NCI-H460 lung
  TGI: 16.9 µM
CCRF-CEM leukemia
  TGI: > 38.6 µM
RPMI-8226 leukemia
  TGI: > 60.5 µM
SN12C renal
  TGI: 13.3 µM
SR leukemia
  TGI: > 27.4 µM
UO-31 renal
  TGI: 6.85 µM
HS 578T breast
  TGI: 37 µM
UACC-257 melanoma
  TGI: 20.4 µM
MALME-3M melanoma
  TGI: 26.3 µM
OVCAR-3 ovarian
  TGI: 12.6 µM
SF-268 CNS
  TGI: 23.5 µM
LOX IMVI melanoma
  TGI: 3.25 µM
KM12 colon
  TGI: 2.67 µM
TK-10 renal
  TGI: 3.63 µM
NCI-H522 lung
  TGI: 2.83 µM
HOP-92 NSCLC
  TGI: 4.43 µM
MDA-N
  TGI: 9.26 µM
DU-145 prostate
  TGI: 29.2 µM
SK-MEL-28 melanoma
  TGI: 18.2 µM
SK-MEL-2 melanoma
  TGI: 14.8 µM
MOLT-4 leukemia
  TGI: > 64.6 µM
COLO 205 colon
  TGI: 14.1 µM
SNB-19 CNS
  TGI: 27.9 µM
HCT-116 colon
  TGI: 14.3 µM
M14 melanoma
  TGI: 8.5 µM
MDA-MB-231 breast
  TGI: 5.15 µM
SW-620 colon
  TGI: 4.53 µM
PC-3 prostate
  TGI: 21.1 µM
HL-60(TB) leukemia
  TGI: > 100 µM
RXF 393 renal
  TGI: 10.8 µM
MCF7 breast
  TGI: 2.87 µM
SNB-75 CNS
  TGI: 30.7 µM
T-47D breast
  TGI: 4.46 µM
EKVX NSCLC
  TGI: 33.3 µM
SK-MEL-5 melanoma
  TGI: 20.3 µM
IGROV1 ovarian
  TGI: 18.7 µM
NCI-H226 lung
  TGI: 29.2 µM
SF-539 CNS
  TGI: 21.1 µM
HCT-15 colon
  TGI: 9.66 µM
UACC-62 melanoma
  TGI: 9.89 µM
NCI/ADR-RES ovarian
  TGI: 33.3 µM
ACHN renal
  TGI: 17.8 µM
CAKI-1 renal
  TGI: 9.03 µM
HCC-2998 colon
  TGI: 29.6 µM
786-0 renal
  TGI: 3.11 µM
K-562 leukemia
  TGI: > 100 µM
SK-OV-3 ovarian
  TGI: 27.8 µM
HOP-62 NSCLC
  TGI: 27.7 µM
SF-295 CNS
  TGI: 28.9 µM
